US20250171498A1, “ANTIBIOTIC COMPOUNDS, FORMULATIONS AND METHODS OF USE” (UNIVERSITEIT LEIDEN, priority 2022, published 2025)
Converted amounts (≈) assume the structure as drawn. *1 amine or outer side, *2 acyl side, *3 side chain or, on linkers, in order; H or OH if unused. Where a SMILES comes first, the peptide text is derived from it. Bridges are numbered along the chain shown (N, C = ends). [ ]: non-standard residue; d: D form. The star is where a group is joined. Phenylthio(4-OPh) = c1ccc(Oc2ccc(S*)cc2)cc1; X1 = CC(C)CCCCC[C@@H](N[*:1])C(=O)[*:2]; S(2-cyclohexylethyl) = C1CCC(CCS*)CC1; dPen = CC(C)(S)[C@@H](N)C(=O)O; X3 = O=C(OCCSSCc1cccc(Cl)c1)*; S(3-Methylbutyl) = CC(C)CCS*; X4 = c1ccc(-c2ccc(S*)cc2)cc1; dDap = NC[C@@H](N)C(=O)O; Dab = NCC[C@H](N)C(=O)O; X2 = CC(C)CCSSCCOC(=O)*; Dap = NC[C@H](N)C(=O)O; X5 = CC(C)CCCCS*; Mpa = O=C(O)CCS

Columns and labels:
Type in all cases: cell-based
[1] = test system: P. Aeruginosa (ATCC 27853); details: ATCC 27853
Procedure: (§1) Compounds were prepared according to scheme 2, 3, 4, 6, 7, or 8 above, preparing different sets of compounds with different substitution patterns. All polymyxin analogues prepared were tested for their anti-bacterial activity on relevant Gram-negative strains (Table B). Polymyxin B and PMBN were taken along as references. In addition, the toxicity on renal Proximal Tubular Epithelial Cells (PTECs) was evaluated.
(§2) 3rd Generation compounds were also subjected to testing for their anti-bacterial activity on relevant Gram-negative strains (Table C). Polymyxin B and PMBN were taken along as references. In addition, the toxicity on renal Proximal Tubular Epithelial Cells (PTECs) was evaluated, see Table C.

[2] = test system: renal Proximal Tubular Epithelial Cells (PTECs); assay: Toxicity on renal Proximal Tubular Epithelial Cells
Procedure: as §1, §2

[3] = test system: A. Baumanni (ATCC 19606); details: ATCC 19606
Procedure: as §1, §2

[4] = test system: E. Coli (ATCC 25922); details: ATCC 25922
Procedure: as §1, §2

[5] = test system: K. Pneumoniae (ATCC 13883); details: ATCC 13883
Procedure: as §1, §2

| Compound | MIC P. Aeruginosa (ATCC 27853) [1] [µg/mL] | MIC A. Baumanni (ATCC 19606) [3] [µg/mL] | MIC E. Coli (ATCC 25922) [4] [µg/mL] | MIC K. Pneumoniae (ATCC 13883) [5] [µg/mL] | PTEC Toxicity (relative to polymyxin B) [2] |
| --- | --- | --- | --- | --- | --- |
| CC(C)CCSSC(C)(C)[C@@H](N)C(=O)N[C@H](C(=O)N[C@@H](CCN)C(=O)N[C@H]1CCNC(=O)[C@H]([C@@H](C)O)NC(=O)[C@H](CCN)NC(=O)[C@H](CCN)NC(=O)[C@H](CC(C)C)NC(=O)[C@@H](Cc2ccccc2)NC(=O)[C@H](CCN)NC1=O)[C@@H](C)O (H-[dPen](S(3-Methylbutyl))T[Dab][Dab][Dab][dF]L[Dab][Dab]T; lactam 4-C) | 2 (≈ 1.67 µM) | 4 (≈ 3.34 µM) | 2 (≈ 1.67 µM) | 2 (≈ 1.67 µM) |  |
| CC(C)CCSSC(C)(C)[C@@H](N)C(=O)N[C@H](C(=O)N[C@@H](CCN)C(=O)N[C@H]1CCNC(=O)[C@H]([C@@H](C)O)NC(=O)[C@H](CCN)NC(=O)[C@H](CCN)NC(=O)[C@H](CC(C)C)NC(=O)[C@@H](CC(C)C)NC(=O)[C@H](CCN)NC1=O)[C@@H](C)O (H-[dPen](S(3-Methylbutyl))T[Dab][Dab][Dab][dL]L[Dab][Dab]T; lactam 4-C) | 2 (≈ 1.72 µM) | 4 (≈ 3.44 µM) | 2 (≈ 1.72 µM) | 2 (≈ 1.72 µM) |  |
| CC(C)CCSSC(C)(C)[C@@H](N)C(=O)N[C@H](C(=O)N[C@@H](CN)C(=O)N[C@H]1CCNC(=O)[C@H]([C@@H](C)O)NC(=O)[C@H](CCN)NC(=O)[C@H](CCN)NC(=O)[C@H](CC(C)C)NC(=O)[C@@H](CC(C)C)NC(=O)[C@H](CCN)NC1=O)[C@@H](C)O (H-[dPen](S(3-Methylbutyl))T[Dap][Dab][Dab][dL]L[Dab][Dab]T; lactam 4-C) | 2 (≈ 1.74 µM) | 2 (≈ 1.74 µM) | 2 (≈ 1.74 µM) | 1 (≈ 0.871 µM) |  |
| CC(C)CCSSCCOC(=O)N[C@H](C(=O)N[C@@H](CCN)C(=O)N[C@H]1CCNC(=O)[C@H]([C@@H](C)O)NC(=O)[C@H](CCN)NC(=O)[C@H](CCN)NC(=O)[C@H](CC(C)C)NC(=O)[C@@H](Cc2ccccc2)NC(=O)[C@H](CCN)NC1=O)[C@@H](C)O (X2-T[Dab][Dab][Dab][dF]L[Dab][Dab]T; lactam 3-C) | 2 (≈ 1.71 µM) |  | 8 (≈ 6.84 µM) | 8 (≈ 6.84 µM) | 0.9 |
| CC(C)CCSSCCOC(=O)N[C@H](C(=O)N[C@H](CO)C(=O)N[C@H]1CCNC(=O)[C@H]([C@@H](C)O)NC(=O)[C@H](CCN)NC(=O)[C@H](CCN)NC(=O)[C@H](CC(C)C)NC(=O)[C@@H](Cc2ccccc2)NC(=O)[C@H](CCN)NC1=O)[C@@H](C)O (X2-T[dS][Dab][Dab][dF]L[Dab][Dab]T; lactam 3-C) | 4 (≈ 3.46 µM) |  | 4 (≈ 3.46 µM) | 2 (≈ 1.73 µM) |  |
| CC(C)C[C@@H]1NC(=O)[C@@H](Cc2ccccc2)NC(=O)[C@H](CCN)NC(=O)[C@@H](NC(=O)[C@H](CCN)NC(=O)[C@@H](NC(=O)OCCSSCc2cccc(Cl)c2)[C@@H](C)O)CCNC(=O)[C@H]([C@@H](C)O)NC(=O)[C@H](CCN)NC(=O)[C@H](CCN)NC1=O (X3-T[Dab][Dab][Dab][dF]L[Dab][Dab]T; lactam 3-C) | 1 (≈ 0.817 µM) |  | 4 (≈ 3.27 µM) | 1 (≈ 0.817 µM) | 1.3 |
| CC(C)C[C@@H]1NC(=O)[C@@H](Cc2ccccc2)NC(=O)[C@H](CCN)NC(=O)[C@@H](NC(=O)[C@H](CN)NC(=O)[C@@H](NC(=O)OCCSSCc2cccc(Cl)c2)[C@@H](C)O)CCNC(=O)[C@H]([C@@H](C)O)NC(=O)[C@H](CCN)NC(=O)[C@H](CCN)NC1=O (X3-T[Dap][Dab][Dab][dF]L[Dab][Dab]T; lactam 3-C) | 4 (≈ 3.31 µM) |  | 8 (≈ 6.61 µM) | 4 (≈ 3.31 µM) | 0.8 |
| CC(C)C[C@@H]1NC(=O)[C@@H](Cc2ccccc2)NC(=O)[C@H](CCN)NC(=O)[C@@H](NC(=O)[C@H](CCN)NC(=O)[C@@H](NC(=O)CCSSc2ccc(Oc3ccccc3)cc2)[C@@H](C)O)CCNC(=O)[C@H]([C@@H](C)O)NC(=O)[C@H](CCN)NC(=O)[C@H](CCN)NC1=O ([Mpa](Phenylthio(4-OPh))T[Dab][Dab][Dab][dF]L[Dab][Dab]T; lactam 4-C) | 2 (≈ 1.6 µM) |  | 8 (≈ 6.39 µM) | 2 (≈ 1.6 µM) |  |
| CC(C)C[C@@H]1NC(=O)[C@@H](Cc2ccccc2)NC(=O)[C@H](CCN)NC(=O)[C@@H](NC(=O)[C@H](CCN)NC(=O)[C@@H](NC(=O)CCSSCCC2CCCCC2)[C@@H](C)O)CCNC(=O)[C@H]([C@@H](C)O)NC(=O)[C@H](CCN)NC(=O)[C@H](CCN)NC1=O ([Mpa](S(2-cyclohexylethyl))T[Dab][Dab][Dab][dF]L[Dab][Dab]T; lactam 4-C) | 2 (≈ 1.68 µM) |  | 4 (≈ 3.35 µM) | 2 (≈ 1.68 µM) |  |
| CC(C)C[C@@H]1NC(=O)[C@@H](Cc2ccccc2)NC(=O)[C@H](CCN)NC(=O)[C@@H](NC(=O)[C@H](CCN)NC(=O)[C@@H](NC(=O)CCSSc2ccc(-c3ccccc3)cc2)[C@@H](C)O)CCNC(=O)[C@H]([C@@H](C)O)NC(=O)[C@H](CCN)NC(=O)[C@H](CCN)NC1=O ([Mpa](X4)T[Dab][Dab][Dab][dF]L[Dab][Dab]T; lactam 4-C) | 4 (≈ 3.24 µM) |  | 8 (≈ 6.47 µM) | 2 (≈ 1.62 µM) |  |
| CC(C)C[C@@H]1NC(=O)[C@@H](Cc2ccccc2)NC(=O)[C@H](CCN)NC(=O)[C@@H](NC(=O)[C@H](CCN)NC(=O)[C@@H](NC(=O)[C@H](N)CSSCCC2CCCCC2)[C@@H](C)O)CCNC(=O)[C@H]([C@@H](C)O)NC(=O)[C@H](CCN)NC(=O)[C@H](CCN)NC1=O [drawing 87] (H-[dC](S(2-cyclohexylethyl))T[Dab][Dab][Dab][dF]L[Dab][Dab]T; lactam 4-C) | 2 (≈ 1.65 µM) |  | 1 (≈ 0.827 µM) |  | 1.2 |
| CC(C)C[C@@H]1NC(=O)[C@@H](Cc2ccccc2)NC(=O)[C@H](CCN)NC(=O)[C@@H](NC(=O)[C@H](CCN)NC(=O)[C@@H](NC(=O)[C@H](N)CSSCCC2CCCCC2)[C@@H](C)O)CCNC(=O)[C@H]([C@@H](C)O)NC(=O)[C@H](CCN)NC(=O)[C@H](CCN)NC1=O [drawing 128] (H-[dC](S(2-cyclohexylethyl))T[Dab][Dab][Dab][dF]L[Dab][Dab]T; lactam 4-C) | 2 (≈ 1.65 µM) | 0.5 (≈ 0.414 µM) | 1 (≈ 0.827 µM) |  | 1.2 |

Continued, in another order:

| MIC P. Aeruginosa (ATCC 27853) [1] [µg/mL] | MIC A. Baumanni (ATCC 19606) [3] [µg/mL] | MIC E. Coli (ATCC 25922) [4] [µg/mL] | MIC K. Pneumoniae (ATCC 13883) [5] [µg/mL] | Compound | PTEC Toxicity (relative to polymyxin B) [2] |
| --- | --- | --- | --- | --- | --- |
| 2 (≈ 1.71 µM) |  |  |  | CC(C)CCSSC[C@H](N)C(=O)N[C@H](C(=O)N[C@@H](CCN)C(=O)N[C@H]1CCNC(=O)[C@H]([C@@H](C)O)NC(=O)[C@H](CCN)NC(=O)[C@H](CCN)NC(=O)[C@H](CC(C)C)NC(=O)[C@@H](Cc2ccccc2)NC(=O)[C@H](CCN)NC1=O)[C@@H](C)O (H-C(S(3-Methylbutyl))T[Dab][Dab][Dab][dF]L[Dab][Dab]T; lactam 4-C) | 9.8 |
| 1 (≈ 0.894 µM) | 0.25 (≈ 0.224 µM) | 1 (≈ 0.894 µM) | 0.25 (≈ 0.224 µM) | CC(C)CCCCC[C@@H](N)C(=O)N[C@H](C(=O)N[C@@H](CN)C(=O)N[C@H]1CCNC(=O)[C@H]([C@@H](C)O)NC(=O)[C@H](CCN)NC(=O)[C@H](CCN)NC(=O)[C@H](CC(C)C)NC(=O)[C@@H](Cc2ccccc2)NC(=O)[C@H](CCN)NC1=O)[C@@H](C)O (H-[X1]T[Dap][Dab][Dab][dF]L[Dab][Dab]T; lactam 4-C) | 7.8 |
| 2 (≈ 1.69 µM) | 1 (≈ 0.846 µM) | 2 (≈ 1.69 µM) | 1 (≈ 0.846 µM) | CC(C)CCSSC(C)(C)[C@@H](N)C(=O)N[C@H](C(=O)N[C@@H](CN)C(=O)N[C@H]1CCNC(=O)[C@H]([C@@H](C)O)NC(=O)[C@H](CCN)NC(=O)[C@H](CCN)NC(=O)[C@H](CC(C)C)NC(=O)[C@@H](Cc2ccccc2)NC(=O)[C@H](CCN)NC1=O)[C@@H](C)O (H-[dPen](S(3-Methylbutyl))T[Dap][Dab][Dab][dF]L[Dab][Dab]T; lactam 4-C) |  |
| 2 (≈ 1.73 µM) |  | 4 (≈ 3.46 µM) | 2 (≈ 1.73 µM) | CC(C)CCSSCCOC(=O)N[C@H](C(=O)N[C@@H](CN)C(=O)N[C@H]1CCNC(=O)[C@H]([C@@H](C)O)NC(=O)[C@H](CCN)NC(=O)[C@H](CCN)NC(=O)[C@H](CC(C)C)NC(=O)[C@@H](Cc2ccccc2)NC(=O)[C@H](CCN)NC1=O)[C@@H](C)O (X2-T[Dap][Dab][Dab][dF]L[Dab][Dab]T; lactam 3-C) |  |
| 2 (≈ 1.73 µM) |  | 4 (≈ 3.46 µM) | 2 (≈ 1.73 µM) | CC(C)CCSSCCOC(=O)N[C@H](C(=O)N[C@H](CN)C(=O)N[C@H]1CCNC(=O)[C@H]([C@@H](C)O)NC(=O)[C@H](CCN)NC(=O)[C@H](CCN)NC(=O)[C@H](CC(C)C)NC(=O)[C@@H](Cc2ccccc2)NC(=O)[C@H](CCN)NC1=O)[C@@H](C)O (X2-T[dDap][Dab][Dab][dF]L[Dab][Dab]T; lactam 3-C) | 2.9 |
| 2 (≈ 1.69 µM) |  | 4 (≈ 3.39 µM) | 2 (≈ 1.69 µM) | CC(C)CCCCSSCCC(=O)N[C@H](C(=O)N[C@@H](CCN)C(=O)N[C@H]1CCNC(=O)[C@H]([C@@H](C)O)NC(=O)[C@H](CCN)NC(=O)[C@H](CCN)NC(=O)[C@H](CC(C)C)NC(=O)[C@@H](Cc2ccccc2)NC(=O)[C@H](CCN)NC1=O)[C@@H](C)O ([Mpa](X5)T[Dab][Dab][Dab][dF]L[Dab][Dab]T; lactam 4-C) |  |
